Converted amounts (≈) assume the structure as drawn.
Tests used:
Type in all cases: biochemical, Rhynchophorus ferrugineus
[1] = molecular target: trypsin-like serine proteinase of R. ferrugineus midgut; test: Trypsin-like serine proteinase specific activity assay (BApNA) in 4th instar midgut homogenate; details: for IC50 against trypsin-like serine proteinase: in vitro, midgut of 4th instar larvae; for Specific activity, Trypsin: control 4.10 ± 0.11
Protocol: (§1) Serine proteinase specific activities were assayed, as described by Olga et al. with modifications, using a rapid microplate assay with synthetic substrates in 150 µL reaction mixtures containing a serine protease assay buffer (100 mM Tris-HCl, pH 8.1). Na-benzoyl-L-arginine ρ-nitroanilide (BAρNA) was evaluated for trypsin-like proteinases, N-succinyl-ala-alapro-leucine ρ-nitroanilide (SAAPLρNA) for elastase-like proteinases, and N-succinyl-ala-ala-pro-phenylalanine ρ-nitroanilide (SAAPFρNA) for chymotrypsin-like proteinases.
(§2) The 4th instar midguts were homogenized with the assay buffer. The homogenates of midguts were centrifuged at 8000× g for 30 min using Sigma 3K 30 rotors No. 12158 (Sigma laboratories centrifuge 3K30). Enzyme (10 µL) was added to each plate well (containing 40 µL of buffers) for the assays chymotrypsin-, trypsin-, and elastase-like proteinases. Stock substrates of BAρNA (100 mg/mL in DMSO), SAAPFρNA (100 mg/mL in DMF), and SAAPLρNA (100 mg/mL in DMF) were diluted to 1.0 mg/mL with an assay buffer. The total volume of the substrate was 50 µL. The reaction mixture was immediately incubated at 37 °C for 15 min and then stopped with 50 µL 30% acetic acid. Nitroaniline was measured at 405 nm using an ELISA plate reader. An assay mixture with a denaturation enzyme instead of a live enzyme was used as the blank well. Specific proteinase activities were expressed in OD/min mg protein in triplicate (for three substrates).
(§3) Specific protease inhibitors were added to the reactions of proteolytic activity determination assays, and the inhibitors were: PMSF, a general serine proteinase inhibitor; TLCK, a trypsin-like serine proteinase inhibitor; TPCK, a chymotrypsin-like serine proteinase inhibitor; an iodoacetic acid-like cysteine proteinase inhibitor; an EDTA-like metalloproteinase inhibitor; and leupeptin, a general proteinase inhibitor. The 4th midgut larval homogenates of a lab strain were prepared as described above in the assay for enzyme activity determination. The inhibition assay was carried out on a microplate assay as described above. A series of inhibitor concentrations was prepared in order to establish the maximum inhibition by each inhibitor. The leupeptin (0.01, 0.05, 0.1, and 1.0 mM), PMSF (0.1, 1.0, 10, and 50 mM), TLCK and TPCK (0.01, 0.05, 0.1, 1, 50, and 100 mM), EDTA (0.1, 1, 10, 50, and 100 mM), and iodoacetic acid concentrations (0.01, 0.05, 0.1, and 1 mM) were dissolved in the assay buffers.
(§4) To identify the proteases present in the R. ferrugineus 4th midgut larval instar homogenate preparations, different mechanistic class inhibitors were tested. In all protease types, enzyme samples of 10 µL and inhibitors or extracts from the cell suspension after 40 days or pure compounds (thymol, p-cymene, γ-terpinene, β-caryophyllene, linalool, estragole, β-terpineol, ocimene, 1,8-cineole, germacrene D, and eugenol) (1, 10, 50, 100, 500, 1000, and 5000 mg/L) were pre-incubated for 10 min before adding the substrate. An assay mixture without inhibitors was used as control. Absorbance was measured using an ELISA plate reader at different nm according to the type of enzymes. Percent activity of the control for each inhibitor was calculated to each enzyme.

[2] = molecular target: elastase-like proteinase of R. ferrugineus midgut; test: Elastase-like serine proteinase specific activity assay (SAAPLpNA) in 4th instar midgut homogenate; details: for IC50 against elastase: in vitro, midgut of 4th instar larvae; for Specific activity, Elastase: control 8.23 ± 0.02
Protocol: as §1, §2, §3, §4

[3] = system: total proteases of R. ferrugineus midgut; test: Total proteolytic enzyme activity (azocasein) in 4th instar larval midgut homogenate; details: for IC50 against total proteases: in vitro, midgut of 4th instar larvae; for Specific activity, Total Proteases: control 25.83 ± 0.45
Protocol: Protein determination was carried out according to the Lowry method. Total proteolytic enzyme activity using azocasein was assessed in the 4th midgut instars larvae homogenate of R. ferrugineus according to Olga et al., [42] with modifications. The 4th midgut larvae homogenates of lab strain (10 larvae) were pulled out gently, excised, and washed using a saline solution (0.9% (w/v) NaCl) repeatedly and then homogenized using 500 µL of an assay buffer. The midgut instar was homogenized in 500 µL of a protease assay buffer [50 mM HEPS (N-2-hydroxyelthyl piperazin-N′-2-ehtanesulphonic acid), pH 8.0, 5 mM dithiothreitol (DTT) and 0.1% (v/v) Triton X-100]. The reserve homogenates that were obtained from a previous step were centrifuged at 5000× g for 30 min using a Sigma 3k30 cooling centrifuge. The supernatants were used for estimation of the total proteolytic enzyme activity and protein concentration. Ten microliters of supernatant per assay was incubated in a total volume of 60 µL of assay buffer (pH 8) for 20 min at 37 °C before the addition of 200 µL of azocasien (2%, w/v in an assay buffer).
In all cases, enzyme samples of 10 μL, hydro distillate extract from the cell suspension after 40 days, and pure compounds (thymol, estragole, p-cymene, γ-terpinene, linalool, β-terpineol, ocimene, eugenol, 1,8-cineole, β-Caryophyllene, and germacrene D) (50, 100, 500, 1000, and 5000 mg/L) were pre-incubated together for 10 min. Substrate was then added to start the reaction (20 min for Leupeptin). The reaction lasted for 180 min at 37 °C and was then stopped using 300 µL of cold 10% (v/v) trichloroacetic acid (TCA). The reaction mixture was centrifuged at 5000× g for 20 min using the Sigma 3k30 cooling centrifuge. Ten microliters of NaOH (10 N) was added to the supernatant, and absorbency at 450 nm was measured using an ELISA plate reader. An assay mixture without an enzyme was used as a blank, the specific activity of total proteolytic enzymes was calculated as OD450. mg^−1·protein^−1·h^−1, and a blank sample was determined without an enzyme solution.
as §3, §4

[4] = system: metalloproteinase of R. ferrugineus midgut; test: Metalloproteinase specific activity assay (azocasein) in 4th instar midgut homogenate; details: control 1.15
Protocol: The 4th midgut larvae (10 larvae) were pulled out gently, excised, washed with saline solution (0.9% NaCl) repeatedly to remove foodstuff and then homogenized in a 500 µL assay buffer. […] The homogenates were centrifuged at 5000× g for 30 min using the Sigma 3k30 cooling centrifuge. The supernatants were used for estimation of enzyme activity and protein concentration. […] The reaction was stopped with 300 µL of cold 10% trichloroacetic acid (TCA) and proceeded for 180 min at 37 °C. The reaction mixture was centrifuged at 5000× g for 20 min using the Sigma 3k30 cooling centrifuge, 10 µL of 10 N NaOH was added to the supernatant, and absorbance at 450 nm was measured using an ELISA plate reader. An assay mixture without an enzyme was used as the blank. […] Specific protease inhibitors were added to the reactions of proteolytic activity determination assays, and the inhibitors were: PMSF, a general serine proteinase inhibitor; […] The inhibition assay was carried out on a microplate assay as described above. A series of inhibitor concentrations was prepared in order to establish the maximum inhibition by each inhibitor. […] An assay mixture without inhibitors was used as control. Absorbance was measured using an ELISA plate reader at different nm according to the type of enzymes. Percent activity of the control for each inhibitor was calculated to each enzyme.

[5] = system: chymotrypsin-like serine proteinase of R. ferrugineus midgut; test: Chymotrypsin-like serine proteinase specific activity assay (SAAPFpNA) in 4th instar midgut homogenate; details: for Specific activity, Chymotrypsin: control 7.35 ± 0.02
Protocol: as §1, §2, §3, §4

[6] = system: cysteine proteinase of R. ferrugineus midgut; test: Cysteine proteinase specific activity assay (Z-Phe-Arg-MNA) in 4th instar midgut homogenate; details: for Specific activity, Cysteine Protease: control 0.59 ± 0.05
Protocol: as §3, §4

CC12CCC(CC1)C(C)(C)O2 [1,8-cineole]
IC50 against trypsin-like serine proteinase [1]: 71.7 µg/mL (≈ 465 µM) | IC50 against elastase [2]: 116 µg/mL (≈ 752 µM) | IC50 against total proteases [3]: 92.1 µg/mL (≈ 597 µM)

CC1=CCC(C(C)C)=CC1 [γ-terpinene]
IC50 against trypsin-like serine proteinase [1]: 105.7 µg/mL (≈ 776 µM) | IC50 against elastase [2]: 163 µg/mL (≈ 1200 µM) | IC50 against total proteases [3]: 137.3 µg/mL (≈ 1010 µM)

Cc1ccc(S(=O)(=O)N[C@@H](CCCCN)C(=O)CCl)cc1 [TLCK, N,p-tosyl-L-lysine chloromethyl ketone]
Specific activity, Trypsin ([1]; inhibitor 0.01 mM): 3.90 ± 0.11 OD/mg protein min | Specific activity, Trypsin ([1]; inhibitor 0.05 mM): 3.82 ± 0.1 OD/mg protein min | Specific activity, Trypsin ([1]; inhibitor 0.1 mM): 3.57 ± 0.1 OD/mg protein min | Specific activity, Trypsin ([1]; inhibitor 1 mM): 3.41 ± 0.09 OD/mg protein min | Specific activity, Trypsin ([1]; inhibitor 10 mM): 3.08 ± 0.1 OD/mg protein min | Specific activity, Trypsin ([1]; inhibitor 50 mM): 2.84 ± 0.09 OD/mg protein min | Specific activity, Trypsin ([1]; inhibitor 100 mM): 2.12 ± 0.1 OD/mg protein min | Inhibition of midgut instar proteases (in words) ([1]; trypsin-like serine proteinase inhibitor): significantly inhibited

O=C([O-])CN(CCN(CC(=O)O)CC(=O)O)CC(=O)[O-].[Na+].[Na+] [EDTA, ethylenediaminetetraacetic acid disodium salt]
Specific activity, Metallo-Protease ([4]; inhibitor 0.1 mM): 0.89 ± 0.11 OD/mg protein min | Specific activity, Metallo-Protease ([4]; inhibitor 1 mM): 0.80 ± 0.11 OD/mg protein min | Specific activity, Metallo-Protease ([4]; inhibitor 10 mM): 0.68 ± 0.11 OD/mg protein min | Specific activity, Metallo-Protease ([4]; inhibitor 50 mM): 0.59 ± 0.1 OD/mg protein min | Specific activity, Metallo-Protease ([4]; inhibitor 100 mM): 0.42 ± 0.1 OD/mg protein min

C=CC(C)(O)CCC=C(C)C (stereo not drawn) [linalool]
IC50 against elastase [2]: 109.1 µg/mL (≈ 707 µM) | IC50 against total proteases [3]: 197 µg/mL (≈ 1280 µM)

Cc1ccc(C(C)C)c(O)c1 [thymol]
IC50 against elastase [2]: 195 µg/mL (≈ 1300 µM) | IC50 against total proteases [3]: 189.7 µg/mL (≈ 1260 µM)

Cc1ccc(S(=O)(=O)N[C@@H](Cc2ccccc2)C(=O)CCl)cc1 [TPCK, N,alpha-tosyl-L-phenylalanine chloromethyl ketone]
Inhibition of midgut instar proteases (in words) ([5]; chymotrypsin-like serine proteinase inhibitor): significantly inhibited | Specific activity, Chymotrypsin ([5]; inhibitor 0.01 mM): 6.97 ± 0.03 OD/mg protein min | Specific activity, Chymotrypsin ([5]; inhibitor 0.05 mM): 6.40 ± 0.02 OD/mg protein min | Specific activity, Chymotrypsin ([5]; inhibitor 0.1 mM): 6.18 ± 0.02 OD/mg protein min | Specific activity, Chymotrypsin ([5]; inhibitor 1 mM): 5.28 ± 0.02 OD/mg protein min | Specific activity, Chymotrypsin ([5]; inhibitor 10 mM): 4.87 ± 0.02 OD/mg protein min | Specific activity, Chymotrypsin ([5]; inhibitor 50 mM): 3.64 ± 0.03 OD/mg protein min | Specific activity, Chymotrypsin ([5]; inhibitor 100 mM): 2.02 ± 0.02 OD/mg protein min

CC(=O)N[C@@H](CC(C)C)C(=O)N[C@@H](CC(C)C)C(=O)N[C@H](C=O)CCCNC(=N)N [Leupeptin, leupeptin]
Specific activity, Total Proteases ([3]; inhibitor 0.01 mM): 0.12 ± 0.05 OD/mg protein min | Specific activity, Total Proteases ([3]; inhibitor 0.05 mM): 0.08 ± 0.05 OD/mg protein min | Specific activity, Total Proteases ([3]; inhibitor 0.1 mM): 0.07 ± 0.05 OD/mg protein min | Specific activity, Total Proteases ([3]; inhibitor 1 mM): 0.01 ± 0.05 OD/mg protein min

O=C(O)CI [Iodoacetic acid, iodoacetic acid]
Inhibition of midgut instar proteases (in words) ([6]; cysteine protease inhibitor): significantly inhibited | Specific activity, Cysteine Protease ([6]; inhibitor 0.01 mM): 0.28 ± 0.04 OD/mg protein min | Specific activity, Cysteine Protease ([6]; inhibitor 0.05 mM): 0.24 ± 0.05 OD/mg protein min | Specific activity, Cysteine Protease ([6]; inhibitor 0.1 mM): 0.19 ± 0.04 OD/mg protein min | Specific activity, Cysteine Protease ([6]; inhibitor 1 mM): 0.16 ± 0.05 OD/mg protein min

O=S(=O)(F)Cc1ccccc1 [PMSF, phenymethanesulfonyl fluoride]
Specific activity, Elastase ([2]; inhibitor 0.1 mM): 6.46 ± 0.01 OD/mg protein min | Specific activity, Elastase ([2]; inhibitor 1 mM): 5.26 ± 0.03 OD/mg protein min | Specific activity, Elastase ([2]; inhibitor 10 mM): 4.18 ± 0.03 OD/mg protein min | Specific activity, Elastase ([2]; inhibitor 50 mM): 3.98 ± 0.0 OD/mg protein min | Inhibition of midgut proteases (in words) ([3]; purified proteases from midgut 4th larval instars): strongly inhibited

C=CCc1ccc(O)c(OC)c1 [eugenol]
IC50 against trypsin-like serine proteinase [1]: 74.1 µg/mL (≈ 451 µM) | IC50 against total proteases [3]: 99.7 µg/mL (≈ 607 µM)

Cc1ccc(C(C)C)cc1 [p-cymene]
IC50 against trypsin-like serine proteinase [1]: 98.4 µg/mL (≈ 733 µM) | IC50 against elastase [2]: 169 µg/mL (≈ 1260 µM) | IC50 against total proteases [3]: 121.8 µg/mL (≈ 907 µM)

C=C(C)C1CCC(C)(O)CC1 (stereo not drawn) [β-terpineol]
IC50 against total proteases [3]: 214 µg/mL (≈ 1390 µM)

From PMC8147177, “Bio-Insecticide of Thymus vulgaris and Ocimum basilicum Extract from Cell Suspensions and Their Inhibitory Effect against Serine, Cysteine, and Metalloproteinases of the Red Palm Weevil (Rhynchophorus ferrugineus)” (Insects, 2021)
